# Experiment: Human HepG2 cell viability assay in 384 well format
# Format: toxicity, cell-based
# Parameters: dose 125 nL, time 70.5 hour; concentration not given beside the values
# Settings: HepG2 cells, read-out: Inhibition
row,Structure (SMILES),cytotoxicity at 70.5 h [%]
1,CCC1(C)Cc2ccccc2-c2nc(NCCO)nc(O)c21 (centres undefined),-26.4
2,O=c1[nH]c(NCCCO)nc2c1C1(CCCC1)Cc1ccccc1-2,-23.5
3,O=c1[nH]c(NCCO)nc2c1C1(CCCC1)Cc1ccccc1-2,18.4
4,CC(C)CN1C(=O)CO[C@@H]2CN(C(=O)N3CCOCC3)C[C@H]21,-2.58
5,CC(C)CN1C(=O)CO[C@@H]2CN(C(=O)[C@H]3CCCO3)C[C@H]21,-1.2
6,CCN1C(=O)CC[C@@H]2[C@H]1CCN2C(=O)Cc1cccc(OC)c1,0.943
7,COc1cccc(CN2CCC3(CCN(c4ncc(C)cn4)C3)C2=O)c1 (centres undefined),-0.0299
8,Cc1ccc(C(=O)N2CC[C@@H]3[C@H]2CCC(=O)N3CC2CC2)o1,-0.589
9,COC[C@]12COC[C@H]1CN(S(=O)(=O)c1cccnc1)C2,-13
10,CC(C)N1CCN(C)C2(CCN(C(=O)c3ccnnc3)CC2)C1=O,-4.95
11,CS(=O)(=O)N1CCCC12CCCN(c1nccs1)C2 (centres undefined),-3.55
12,CC(C)C(=O)N1CC[C@@H]2CN(Cc3ccncc3)S(=O)(=O)[C@@H]2CC1,-3.99
13,O=C(c1cc[nH]n1)N1CC[C@@H]2CN(Cc3cccnc3)S(=O)(=O)[C@@H]2CC1,-1.58
14,CCc1cnc(N2CC[C@@H]3CN(C(=O)c4ccco4)CCO[C@@H]3C2)nc1,-10.8
15,CN(C)CCNC(=O)c1noc2c1CN(C(=O)N(C)C)CC2,-6.62
16,O=C(c1ccnnc1)N1CCC2(CCN(c3ccsc3)C2=O)C1 (centres undefined),-0.84
17,CO[C@@H]1CC[C@H]2[C@H]1OCCN2C(=O)c1ccco1,-1.75
18,Cn1nc(C#N)c2c1CN(C(=O)c1ccnnc1)CCC2,0.526
19,Cc1nc(CN2CCO[C@H]3CN(C(=O)Cc4cccs4)C[C@H]32)cs1,-3.66
20,O=C1NCC[C@]12CN(Cc1ccsc1)C[C@H]2c1ccccc1,-4.93
21,CCO[C@@H]1CC[C@H]2[C@H]1OCCN2C(=O)c1ccc(C)o1,-4.6
22,Cc1ccc(CC(=O)N2CCn3cc(Cn4cncn4)nc3C2)cc1,-7.66

row,Structure (SMILES),cytotoxicity at 70.5 h [%]
1,CO[C@H]1CC[C@H]2[C@H]1OCCN2C(=O)c1ccc(C)nc1,-2.48
2,Cc1ccc(C(=O)N2C[C@@H]3COC[C@]3(COCc3cccnc3)C2)cn1,-6.21
3,Cc1nc(C(=O)N2C[C@@H]3COC[C@]3(COCc3cccnc3)C2)cs1,-6.56
4,CCn1c(SCC(=O)N2CCOCC2)nc2cc(C)[nH]c2c1=O,0.779
5,Cc1cc2nc(SCC(=O)N3CCCCC3)n(C)c(=O)c2[nH]1,19.2
6,Cc1cc2nc(SCC(=O)N3CCOCC3)n(C(C)C)c(=O)c2[nH]1,-5.42
7,COc1ccc(N2CCN(CC(O)c3cc(C)ccc3C)CC2)cc1 (centres undefined),-14.7
8,OCCCNc1nc(O)c2c(n1)-c1ccccc1CC21CCCCC1,-9.73
9,COc1ccccc1CCNC(=O)CC1(Cn2cnnn2)CCCCC1,-20.4
10,CC(C)c1ccc(NC(=O)Cn2cc(I)cn2)cc1,-24.1
11,CC(C)CNC(=O)CC1(Cn2cnnn2)CCCCC1,-12.5
12,COc1cccc2c1ccn2CC(=O)N1CCCC(C(=O)O)C1 (centres undefined),21.4
13,COc1ccc(C(=O)COc2coc(CN3CCCCC3)cc2=O)cc1,-5.06
14,COc1cccc(C(=O)Oc2cc(=O)n3cccc(C)c3n2)c1,-24.8
15,CCCOc1ccc(C(=O)Oc2cc(=O)n3cccc(C)c3n2)cc1,-0.525
16,Cc1ccc(C(=O)Oc2cc(=O)n3cccc(C)c3n2)cc1,15.3
17,Cc1cccn2c(=O)cc(OC(=O)c3ccc(OC(C)C)cc3)nc12,-14.3
18,COCCNC(=O)Cn1c(-c2ccc(Cl)cc2)nc(C)c(CCO)c1=O,3.28
19,CC/N=c1\nc(NCC)nc2n1C(O)(Nc1ccc(C)cc1C)CS2 (centres undefined),4.88
20,CCOc1cccc2c1OCC(=O)N(c1ccc3c(c1)OCO3)C2,14.7
21,CCOc1cccc2c1OCC(=O)N(c1ccc3c(c1)OCCO3)C2,-6.5
22,O=c1[nH]nc2c(S(=O)(=O)N3CCOCC3)cccn12,-9.51

row,Structure (SMILES),cytotoxicity at 70.5 h [%]
1,Cn1ccc2c(cnc3nc(-c4ccncc4)nn32)c1=O,-7.69
2,Cc1nc2ncc3c(=O)n(C)ccc3n2n1,-8.63
3,CCc1nnc2sc(-c3cc(C(C)C)n[nH]3)nn12,-1.02
4,CC1CCC2(CC1)Nc1ccccc1CO2 (centres undefined),15.1
5,COC(=O)C1CCN(C(=O)c2cc(Br)ccc2-n2cnnn2)CC1,-1.5
6,CN1CCCN(Cn2nc(-c3ccccc3F)ccc2=O)CC1,-5.91
7,Cc1ccccc1CS(=O)(=O)c1nnc(C(C)NC(=O)OC(C)(C)C)o1 (centres undefined),26.9
8,CC(NC(=O)OC(C)(C)C)c1nnc(S(=O)(=O)Cc2ccccc2Cl)o1 (centres undefined),-4.85
9,CC(=O)c1ccc(NC(=O)N[C@H](C(=O)O)C(C)C)cc1,-6.92
10,CCOC(=O)C1CCN(C(=O)c2cc(Br)ccc2-n2cnnn2)CC1,-6.49
11,O=C(Cc1ccc2c(c1)OCC2)Nc1nc[nH]n1,-8.03
12,O=C(Cc1ccc2c(c1)OCC2)Nc1nn[nH]n1,-8.8
13,CC(NC(=O)OC(C)(C)C)c1nnc(S(=O)(=O)Cc2ccc(Cl)cc2)o1 (centres undefined),4.02
14,CC(CC(=O)O)CC(=O)Nc1sc2c(c1C(N)=O)CCc1ccccc1-2 (centres undefined),19.3
15,NC(=O)c1c(NC(=O)C2CCCO2)sc2c1CCc1ccccc1-2 (centres undefined),-3.81
16,Cc1cccc(CSc2ncc(Br)c(C(=O)O)n2)c1,-8.53
17,Cc1ccc(CSc2ncc(Br)c(C(=O)O)n2)cc1,0.214
18,CCOc1cc(CNCCCn2ccnc2)cc(Cl)c1OC,3.61
19,CCOc1c(Cl)cc(Cl)cc1CNCCCn1ccnc1,-10.4
20,Cc1nc(Nc2ccc(Cl)cn2)sc1C(=O)NC(C)C,7.41
21,Cc1c(C(=O)O)nnn1Cc1cccc(C(F)(F)F)c1,-12.7
22,O=C(COCc1nc(-c2ccncc2)no1)N1CCOCC1,-0.64

row,Structure (SMILES),cytotoxicity at 70.5 h [%]
1,CCN1CCN(C(=O)COCc2nc(-c3ccncc3)no2)CC1,-1.19
2,Cc1cc(O)n(-c2ccc3nnc(C)n3n2)n1,-19.5
3,O=C(O)c1cnc(N2CCCC2)nc1COc1ccccc1,-2.71
4,Cc1nc(N2CCCC2)ncc1-c1cc(O)n2ncnc2n1,-2.97
5,COCCCNc1c(C#N)c2c(c3nncn13)CN(C)CC2,-28.4
6,CCOc1ccc(Br)cc1C1CCCCN1 (centres undefined),-12.6
7,CCOC(=O)CSc1nnc(C(N)CC(C)C)o1 (centres undefined),-7.86
8,Cc1cccc(CN2Cc3[nH]nc(COCCO)c3C2)n1,-0.969
9,Cn1cccc1C(=O)N1CC[C@H]2[C@H]1CCN2CC1CCOCC1,-0.0713
10,Cc1noc(C)c1CN1C[C@@H]2CN(C(=O)c3cnccn3)C[C@@H]2C1,0.0874
11,CN(C)C(=O)C1CN(Cc2ccsc2)Cc2ccnn2C1 (centres undefined),12.7
12,Cn1cccc1C(=O)N1CC[C@H]2[C@H]1CCN2CC1CC1,-0.69
13,c1cncc(COC2COC3(CCN(c4cnccn4)CC3)C2)c1 (centres undefined),15.1
14,CNC(=O)COC1COC2(CCN(c3ncccn3)CC2)C1 (centres undefined),-1.44
15,CC(C)NC(=O)N1CCc2onc(C(=O)NCCN(C)C)c2C1,-2.85
16,CC(C)C(=O)N1CCc2onc(C(=O)NCCN(C)C)c2C1,-5.11
17,O=C(c1cc[nH]n1)N1CC[C@@H]2CN(Cc3ccncc3)S(=O)(=O)[C@@H]2CC1,-5.13
18,COc1cc(N2C[C@@H]3COC[C@]3(C(=O)NC3CC(F)(F)C3)C2)ncn1,-4.63
19,CNC(=O)c1cc2c(nc1N(C)C)CCN(S(=O)(=O)N(C)C)CC2,4.98
20,COc1ccc2c(c1)C1(CCN(Cc3cnn(C)c3)CC1)N(C)CC2,-0.704
21,COCC1CC2(CCN(C(=O)c3ccc(C)nc3)CC2)CO1 (centres undefined),-5.4
22,Cc1noc([C@@H]2C[C@@H]3CCN(CC4CCOCC4)C[C@H]3O2)n1,-4.62

row,Structure (SMILES),cytotoxicity at 70.5 h [%]
1,Cc1ccc(N2CC3(COCCN(Cc4cnn(C)c4)C3)OCC2=O)s1 (centres undefined),0.295
2,CC(C)NC(=O)C1CN(Cc2ccsc2)Cc2ccnn2C1 (centres undefined),1.63
3,Cc1ccsc1CN1CCC2(CC1)CC(OCc1cccnc1)CO2 (centres undefined),-0.0736
4,Fc1cnc(N2CCC3(CC2)CC(OCc2cccnc2)CO3)nc1 (centres undefined),-0.216
5,Cc1cnc(N2CCC3(CC2)CC3CN(C)Cc2cccnc2)nc1 (centres undefined),2.52
6,c1csc(CN2CCC3(CC2)CCN(CC2CCOCC2)C3)n1,0.161
7,Cc1nc(CN2C[C@@H]3CCCO[C@@H]3[C@H](N(C)C(C)C)C2)cs1,-1.04
8,COCCN1C(=O)CC[C@]12CC[C@@H](NCc1cccnc1OC)CC2,-2.58
9,c1csc(CN2CCC3(COCCN(CC4CC4)C3)C2)n1 (centres undefined),-3.37
10,O=C(c1ccncc1)N1CC[C@@H]2[C@@H](CC1)OCCN2c1cccnc1,-7.36
11,CO[C@H]1CCN(c2ncc(F)cn2)[C@@H]2CN(Cc3ccco3)C[C@H]12,-6.95
12,CN1C[C@@H]2CN(Cc3ccsc3)CCC[C@]2(C(=O)O)C1,-2.55
13,CCOC(=O)[C@]12CCCN(Cc3ccsc3)C[C@H]1CN(CCOC)C2,-5.12
14,CNC(=O)c1cc2c(nc1N(C)C)CCN(C)CC2,-2.14
15,O=S(=O)(NCC1OCCc2cn(Cc3ccccn3)nc21)C1CC1 (centres undefined),-0.93
16,CCOC(=O)[C@]12CCCN(Cc3nccs3)C[C@H]1CN(CC(C)C)C2,-3.1
17,CN(Cc1cccnc1)CC1CC12CCN(c1nncs1)CC2 (centres undefined),-12.3
18,c1ccc(Cn2cc3c(n2)C(CNCC2CCOCC2)OCC3)nc1 (centres undefined),-1.54
19,COc1ncccc1CN1CC[C@H]2[C@H]1CCN2CCN(C)C,-1.63
20,CCOc1ccc(Br)cc1C1CCCN1 (centres undefined),18.6
21,Cc1ccc(C(=O)CN(C2=NCCCCC2)c2ccccc2)cc1,-23.6
